# Activity calls are given as the source filed them. No cut-off for these calls is given here.
# What was measured:
# [1] = target: T1, Protein deacetylase HDAC6 (Homo sapiens, UniProt Q9UBN7); assay: Inhibition of recombinant human N-terminal GST-tagged HDAC6 (1 to 1215 residues) expressed in baculovirus infected insect cells using Boc-Lys(Ac)-AMC as substrate preincubated for 5 mins followed by substrate addition measured after 90 mins by fluorimetry
# T1 sequence (Q9UBN7 whole entry): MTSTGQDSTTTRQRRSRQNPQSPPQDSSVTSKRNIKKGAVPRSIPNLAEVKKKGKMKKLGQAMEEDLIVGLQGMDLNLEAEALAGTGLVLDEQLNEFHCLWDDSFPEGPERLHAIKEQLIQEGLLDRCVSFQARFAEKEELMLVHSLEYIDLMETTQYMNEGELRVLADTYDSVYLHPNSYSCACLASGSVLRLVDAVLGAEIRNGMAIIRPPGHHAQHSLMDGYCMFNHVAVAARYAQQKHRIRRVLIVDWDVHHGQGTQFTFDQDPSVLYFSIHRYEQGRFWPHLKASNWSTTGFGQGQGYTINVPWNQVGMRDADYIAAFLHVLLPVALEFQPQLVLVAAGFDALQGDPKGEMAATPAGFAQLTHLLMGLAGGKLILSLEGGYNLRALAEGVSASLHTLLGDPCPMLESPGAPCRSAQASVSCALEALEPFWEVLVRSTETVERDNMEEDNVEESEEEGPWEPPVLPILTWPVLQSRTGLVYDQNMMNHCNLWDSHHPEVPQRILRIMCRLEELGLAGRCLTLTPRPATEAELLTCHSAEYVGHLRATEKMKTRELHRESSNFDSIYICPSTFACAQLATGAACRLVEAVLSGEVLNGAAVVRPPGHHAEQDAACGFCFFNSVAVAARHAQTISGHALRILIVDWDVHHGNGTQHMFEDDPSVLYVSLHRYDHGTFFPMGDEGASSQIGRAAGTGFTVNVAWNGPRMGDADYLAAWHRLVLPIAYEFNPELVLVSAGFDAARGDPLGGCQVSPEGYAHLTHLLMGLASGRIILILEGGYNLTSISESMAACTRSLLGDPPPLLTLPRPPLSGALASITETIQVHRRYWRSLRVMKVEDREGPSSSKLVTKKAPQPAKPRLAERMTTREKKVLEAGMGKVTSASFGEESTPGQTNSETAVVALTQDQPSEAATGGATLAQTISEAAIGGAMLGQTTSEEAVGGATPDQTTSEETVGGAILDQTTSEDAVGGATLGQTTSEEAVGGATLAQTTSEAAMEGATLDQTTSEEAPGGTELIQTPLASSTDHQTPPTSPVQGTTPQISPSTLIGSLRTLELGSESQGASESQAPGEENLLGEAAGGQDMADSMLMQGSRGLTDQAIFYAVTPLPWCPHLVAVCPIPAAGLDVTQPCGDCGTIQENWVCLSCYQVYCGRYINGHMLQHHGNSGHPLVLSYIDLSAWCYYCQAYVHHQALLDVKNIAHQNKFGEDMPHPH
# [2] = tested on: CAL-27; assay: Induction of apoptosis in human CAL-27 cells assessed as caspase 3 activation at 0.3 uM pretreated for 24 hrs followed by cisplatin treatment and further incubated for 18 hrs by Caspase3/7 detection reagent based assay; type: functional, cell-based; conditions: time 42.0 hrs
# [3] = tested on: Cal27CisR; assay: Induction of DNA damage in human Cal27CisR cells assessed as increase in gamma H2AX phosphorylation pretreated for 24 hrs followed by cisplatin treatment and further incubated for 18 hrs measured by Western blot analysis; type: functional, cell-based; conditions: time 42.0 hrs
# [4] = Inhibition of Class 1/2b HDAC in human HL-60 cells by HDAC-Glo assay; type: cell-based
# [5] = tested on: HL-60; assay: Antiproliferative activity against human HL-60 cells assessed as reduction in cell viability for 72 hrs by Celltitre-Glo luminescent assay; type: functional, cell-based; conditions: HL-60, 72 h
# [6] = target: T2, Histone deacetylase (Homo sapiens) (UniProt Q13547+O15379+Q9UBN7+Q92769+Q9UQL6+Q8WUI4+Q9BY41+Q96DB2+P56524+Q9UKV0+Q969S8); assay: Inhibition of HDAC in human CAL-27 cells assessed as combination index at 0.2 uM measured in presence of 5 uM cDDP by MTT-based Chou-Talalay method; type: cell-based
# [7] = target: T2, Histone deacetylase (Homo sapiens); assay: Inhibition of HDAC in human Cal27CisR cells assessed as potentiation of cisplatin-induced cytotoxicity by measuring fold reduction in cisplatin IC50 at 0.3 to 0.5 uM pretreated for 48 hrs followed by cisplatin addition and measured after 72 hrs by MTT assay relative to cisplatin alone; type: cell-based; conditions: dose 0.3-0.5 µM, time 120.0 hrs
# [8] = target: T2, Histone deacetylase (Homo sapiens); assay: Inhibition of HDAC in human CAL-27 cells assessed as combination index at 0.25 uM measured in presence of 5 uM cDDP by MTT-based Chou-Talalay method; type: cell-based
# [9] = target: T2, Histone deacetylase (Homo sapiens); assay: Inhibition of HDAC in human CAL-27 cells assessed as combination index at 0.1 uM measured in presence of 10 uM cDDP by MTT-based Chou-Talalay method; type: cell-based
# [10] = target: T2, Histone deacetylase (Homo sapiens); assay: Inhibition of HDAC in human CAL-27 cells assessed as combination index at 0.35 uM measured in presence of 10 uM cDDP by MTT-based Chou-Talalay method; type: cell-based
# [11] = target: T2, Histone deacetylase (Homo sapiens); assay: Inhibition of HDAC in human CAL-27 cells assessed as combination index at 0.4 uM measured in presence of 10 uM cDDP by MTT-based Chou-Talalay method; type: cell-based
# [12] = target: T2, Histone deacetylase (Homo sapiens); assay: Inhibition of HDAC in human Cal27CisR cells assessed as combination index at 0.3 uM measured in presence of 10 uM cDDP by MTT-based Chou-Talalay method; type: cell-based
# [13] = target: T2, Histone deacetylase (Homo sapiens); assay: Inhibition of HDAC in human Cal27CisR cells assessed as combination index at 0.1 uM measured in presence of 20 uM cDDP by MTT-based Chou-Talalay method; type: cell-based
# [14] = target: T2, Histone deacetylase (Homo sapiens); assay: Inhibition of HDAC in human Cal27CisR cells assessed as combination index at 0.3 uM measured in presence of 20 uM cDDP by MTT-based Chou-Talalay method; type: cell-based
# [15] = target: T2, Histone deacetylase (Homo sapiens); assay: Inhibition of HDAC in human Cal27CisR cells assessed as combination index at 0.5 uM measured in presence of 20 uM cDDP by MTT-based Chou-Talalay method; type: cell-based
# [16] = target: T2, Histone deacetylase (Homo sapiens); assay: Inhibition of HDAC in human Cal27CisR cells assessed as combination index at 0.1 uM measured in presence of 50 uM cDDP by MTT-based Chou-Talalay method; type: cell-based
# [17] = target: T2, Histone deacetylase (Homo sapiens); assay: Inhibition of HDAC in human Cal27CisR cells assessed as combination index at 0.2 uM measured in presence of 50 uM cDDP by MTT-based Chou-Talalay method; type: cell-based
# [18] = target: T2, Histone deacetylase (Homo sapiens); assay: Inhibition of HDAC in human Cal27CisR cells assessed as combination index at 0.3 uM measured in presence of 50 uM cDDP by MTT-based Chou-Talalay method; type: cell-based
# [19] = target: T2, Histone deacetylase (Homo sapiens); assay: Inhibition of HDAC in human Cal27CisR cells assessed as combination index at 0.6 uM measured in presence of 50 uM cDDP by MTT-based Chou-Talalay method; type: cell-based
IC50 [1] [nM],IC50 [4] [nM],IC50 [5] [nM],CI [6],CI [8],CI [9],CI [10],CI [11],CI [12],CI [13],CI [14],CI [15],CI [16],CI [17],CI [18],CI [19],SMILES,Activity [2],Activity [3],Ratio IC50 [7]
25,73.2,270,1.11,0.94,0.22,0.02,0.02,0.16,5.25,0.37,0.33,0.32,0.5,0.44,0.38,O=C(CCCCCONC(=O)c1ccc2ccccc2n1)NO,Active,Active,13.2
13,–,–,0.09,0.11,0.22,0.02,0.02,1.17,2.3,0.29,0.21,0.36,0.47,0.47,0.41,O=C(CCCCCONC(=O)c1cc2ccccc2[nH]1)NO,Active,Active,7.36
173,85.1,561,–,–,–,–,–,–,–,–,–,–,–,–,–,O=C(CCCCCONC(=O)c1nccc2ccccc12)NO,–,Active,–
